Test results from ChEMBL document CHEMBL1201862, “PubChem BioAssay data set” (2004).
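Five compound concentrations were applied to cells in 96-well plates for 48 hours; endpoints were derived by simple linear interpolation of the resulting dose-response curve. GI50 marks 50% less growth.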 Calls of active or inactive are those of the source. No stated cut-off is given here; in the data, active = GI50 up to about 1.1 µM and inactive = higher.

How the values were obtained:
Assay in all cases: growth of human tumour cells (NCI), 48 h
DLD-1 = system: DLD-1
DMS-114 = system: DMS-114
HOP-18 = system: HOP-18
KM-20L2 = system: KM-20L2
M19-MEL = system: M19-MEL
SNB-78 = system: SNB-78
XF498 = system: XF498
Hs-578T = system: Hs-578T

COc1ccc(C2COc3c(ccc(O)c3C)C2)cc1OC (centres undefined)
GI50 (DLD-1): 42 µM (inactive) | GI50 (DMS-114): 24.4 µM (inactive) | GI50 (HOP-18): 24.2 µM (inactive) | GI50 (KM-20L2): 91.6 µM (inactive) | GI50 (M19-MEL): 83 µM (inactive) | GI50 (SNB-78): 157 µM (inactive) | GI50 (XF498): 22.9 µM (inactive)

CC(=O)c1ccc(NCN2C(=O)c3ccccc3C2=O)cc1
GI50 (Hs-578T): > 100 µM (inactive)

O=C1OC[C@@H]2Cc3c([nH]c4ccccc34)[C@@H](c3cc(O)c(O)c(O)c3)N12
GI50 (Hs-578T): 15.7 µM (inactive)

CCCCC[C@H]1CCCCCCCCCC(=O)OC2C(O[C@@H]3OC(C)[C@H](OC(=O)[C@@H](C)CC)C(O[C@@H]4OC(C)[C@H](O)C(O)[C@@H]4O)[C@@H]3OC(=O)[C@H](C)CC)[C@H](OC3C(O)[C@@H](O)C(C)O[C@H]3O1)OC(CO)[C@H]2O (some centres undefined)
GI50 (Hs-578T): 16.4 µM (inactive)

C=C1CC(C)(COc2ccc3ccc(=O)oc3c2)OC1=O (centres undefined)
GI50 (Hs-578T): 4.91 µM (inactive)

C=C1C(=O)O[C@@]23C1CC[C@@H](C)C2CC[C@@]1(C)OC31 (some centres undefined)
GI50 (Hs-578T): 16 µM (inactive)

N#C/C(=C/c1ccc[nH]1)P(=O)(O)O
GI50 (DLD-1): > 100 µM (inactive) | GI50 (DMS-114): > 100 µM (inactive) | GI50 (KM-20L2): > 100 µM (inactive) | GI50 (M19-MEL): > 100 µM (inactive) | GI50 (SNB-78): > 100 µM (inactive) | GI50 (XF498): > 100 µM (inactive)

O=C1CCc2ccc3c(c21)CC1(Cc2ccccc2C1)C3
GI50 (Hs-578T): 25.8 µM (inactive)

C=C1C(=O)O[C@@H]2OC3(C)CCC4C(C)CCC1C42OO3 (some centres undefined)
GI50 (DLD-1): 1.93 µM (inactive) | GI50 (HOP-18): 16.5 µM (inactive) | GI50 (M19-MEL): 3.49 µM (inactive) | GI50 (XF498): 2.16 µM (inactive)

O=C1c2cccnc2-c2nccc3c2c1nc1ccccc13 [ASCIDIDEMIN]
GI50 (Hs-578T): 0.637 µM (active)

CCOC(=O)/C=C/c1nc(C#N)c(N)o1
GI50 (Hs-578T): > 100 µM (inactive)

CC(=O)O[C@H]1CC[C@H]2[C@@H]3CCC4=C/C(=N/OCCN(C)C)CC[C@]4(C)[C@H]3CC[C@]12C
GI50 (Hs-578T): 13.5 µM (inactive)

Cc1nc2ccccc2n1Cc1nnc2n1N=C(c1ccccc1)CS2
GI50 (Hs-578T): 38.5 µM (inactive)

Cc1nc2[nH]ncn2c(=O)c1CCCl
GI50 (Hs-578T): > 10 µM (inactive)

NC12Oc3cc(O)cc(O)c3C1(c1ccc(Cl)cc1)c1c(O)cc(O)cc1O2 (centres undefined)
GI50 (Hs-578T): 28.8 µM (inactive)

CN(C)CCNC(=O)c1cccc2ccc(-c3ccc(Br)cc3)nc12
GI50 (DLD-1): 2.59 µM (inactive) | GI50 (DMS-114): 2.61 µM (inactive) | GI50 (HOP-18): 1.91 µM (inactive) | GI50 (KM-20L2): 1.78 µM (inactive) | GI50 (M19-MEL): 2.24 µM (inactive) | GI50 (SNB-78): 8.87 µM (inactive) | GI50 (XF498): 2.16 µM (inactive)

CC(=O)/C=C/C1=C(C)CCCC1(C)CC(C)C (centres undefined)
GI50 (Hs-578T): 32.7 µM (inactive)

O=C(O)COc1ccc(C(=O)/C(SS/C(C(=O)c2ccc(OCC(=O)O)c(Cl)c2Cl)=C2\C=C(c3ccc(Br)cc3)SS2)=C2/C=C(c3ccc(Br)cc3)SS2)c(Cl)c1Cl
GI50 (DLD-1): 6.14 µM (inactive) | GI50 (DMS-114): 1.05 µM (active) | GI50 (HOP-18): 5.48 µM (inactive) | GI50 (Hs-578T): 3.57 µM (inactive) | GI50 (KM-20L2): 39.6 µM (inactive) | GI50 (M19-MEL): 5.45 µM (inactive) | GI50 (SNB-78): 4.57 µM (inactive) | GI50 (XF498): 3.19 µM (inactive)

O=c1[nH]c(=S)[nH]n1C(=S)n1[nH]c(=S)[nH]c1=O
GI50 (Hs-578T): > 100 µM (inactive)

CC(C)(O)[C@H](CCO)O[Si](c1ccccc1)(c1ccccc1)C(C)(C)C
GI50 (DLD-1): 8.93 µM (inactive) | GI50 (HOP-18): 3.1 µM (inactive) | GI50 (KM-20L2): 11.2 µM (inactive) | GI50 (M19-MEL): 14.9 µM (inactive) | GI50 (SNB-78): 15 µM (inactive) | GI50 (XF498): 8.18 µM (inactive)

NNc1nnc(-c2ccccc2)nc1Cc1ccccc1
GI50 (DLD-1): 13.4 µM (inactive) | GI50 (DMS-114): 3.17 µM (inactive) | GI50 (HOP-18): 2.03 µM (inactive) | GI50 (KM-20L2): 3.84 µM (inactive) | GI50 (M19-MEL): 7.41 µM (inactive) | GI50 (XF498): 7.41 µM (inactive)

CCCN1CN(C(C(=O)N[C@@H]2C(=O)N3C(C(=O)O)=C(C)CSC23)c2ccccc2)CSC1=S (some centres undefined)
GI50 (DLD-1): > 100 µM (inactive) | GI50 (HOP-18): > 100 µM (inactive) | GI50 (KM-20L2): > 100 µM (inactive) | GI50 (M19-MEL): > 100 µM (inactive) | GI50 (SNB-78): > 100 µM (inactive)

CC1=CC2=C(C)C3(CC3)[C@@](C)(O)C(=O)C2=C1
GI50 (DLD-1): 0.276 µM (active) | GI50 (DMS-114): 0.139 µM (active) | GI50 (HOP-18): 0.27 µM (active) | GI50 (KM-20L2): 0.213 µM (active) | GI50 (M19-MEL): 0.254 µM (active) | GI50 (SNB-78): 0.274 µM (active) | GI50 (XF498): 0.17 µM (active)

COC(=O)CCC(NC(=S)N/N=C(\C)c1cccs1)C(=O)OC (centres undefined)
GI50 (DLD-1): > 100 µM (inactive) | GI50 (DMS-114): > 100 µM (inactive) | GI50 (HOP-18): > 100 µM (inactive) | GI50 (KM-20L2): > 100 µM (inactive) | GI50 (M19-MEL): > 100 µM (inactive) | GI50 (SNB-78): > 100 µM (inactive) | GI50 (XF498): > 100 µM (inactive)

Cc1nc2c(s/c(=N\N)n2-c2ccccc2)c(=O)[nH]1
GI50 (DLD-1): > 100 µM (inactive) | GI50 (DMS-114): > 100 µM (inactive) | GI50 (KM-20L2): > 100 µM (inactive) | GI50 (M19-MEL): > 100 µM (inactive) | GI50 (SNB-78): > 100 µM (inactive) | GI50 (XF498): > 100 µM (inactive)

COC(=O)C1C(C(=O)OC)N(Cc2ccccc2)C(=O)N1Cc1ccccc1 (centres undefined)
GI50 (Hs-578T): > 100 µM (inactive)
